Patent US20210045385A1, “PYRIDAZINONE-SUBSTITUTED KETOXIMES AS HERBICIDES” (FMC Corporation, priority 2018, published 2021)

What was measured:
Format in all cases: in vivo
[1] = tested on: ducksalad (Heteranhera limosa); assay: Test B flooded paddy test, visual plant response rating; conditions: 250 g ai/ha, Flood, applied to paddy water, 2-leaf stage, evaluated after 13 to 15 days
How it was run: (§1)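 Seedlings at 2 leaves; compound into paddy water (3 cm flood, maintained); 13–15 d greenhouse; visual score relative to controls.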

[2] = tested on: rice (Oryza sativa); assay: as above; conditions: 250 g ai/ha, Flood, applied to paddy water, 2-leaf stage, evaluated after 13 to 15 days
How it was run: as §1

[3] = tested on: barnyardgrass (Echinochloa crus-galli); assay: as above; conditions: 250 g ai/ha, Flood, applied to paddy water, 2-leaf stage, evaluated after 13 to 15 days
How it was run: as §1

[4] = tested on: sedge, umbrella (small-flower umbrella sedge, Cyperus difformis); assay: as above; conditions: 250 g ai/ha, Flood, applied to paddy water, 2-leaf stage, evaluated after 13 to 15 days
How it was run: as §1

[5] = tested on: foxtail, green (green foxtail, Setaria viridis); assay: Test A postemergence, visual plant response rating; conditions: for Foxtail, Green plant response rating (0 to 100 scale): 500 g ai/ha, postemergence, 0 is no effect, 100 is complete control; for Foxtail, Green plant response rating: Postemergence, 125 g ai/ha, 0 to 100 scale (0 no effect, 100 complete control)
How it was run: (§2)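 Compared with untreated controls, treated plants received a visual injury score on a 0–100 scale around 10 days after application. The compound, in a non-phytotoxic solvent with surfactant, was given as a preemergence soil spray or postemergence at the one- to two-leaf stage.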

[6] = tested on: pigweed (Amaranthus retroflexus); assay: Test A postemergence, visual plant response rating; conditions: for Pigweed plant response rating (0 to 100 scale): 500 g ai/ha, postemergence, 0 is no effect, 100 is complete control; for Pigweed plant response rating: Postemergence, 125 g ai/ha, 0 to 100 scale (0 no effect, 100 complete control)
How it was run: as §2

[7] = tested on: corn (Zea mays); assay: Test A postemergence, visual plant response rating; conditions: for Corn plant response rating (0 to 100 scale): 500 g ai/ha, postemergence, 0 is no effect, 100 is complete control; for Corn plant response rating: Postemergence, 125 g ai/ha, 0 to 100 scale (0 no effect, 100 complete control)
How it was run: as §2

[8] = tested on: ragweed (common ragweed, Ambrosia elatior); assay: Test A postemergence, visual plant response rating; conditions: for Ragweed plant response rating (0 to 100 scale): 500 g ai/ha, postemergence, 0 is no effect, 100 is complete control; for Ragweed plant response rating: Postemergence, 125 g ai/ha, 0 to 100 scale (0 no effect, 100 complete control)
How it was run: as §2

[9] = tested on: barnyardgrass (Echinochloa crus-galli); assay: Test A postemergence, visual plant response rating; conditions: for Barnyardgrass plant response rating (0 to 100 scale): 500 g ai/ha, postemergence, 0 is no effect, 100 is complete control; for Barnyardgrass plant response rating: Postemergence, 125 g ai/ha, 0 to 100 scale (0 no effect, 100 complete control)
How it was run: as §2

[10] = tested on: galium (catchweed bedstraw, Galium aparine); assay: Test A postemergence, visual plant response rating; conditions: for Galium plant response rating (0 to 100 scale): 500 g ai/ha, postemergence, 0 is no effect, 100 is complete control; for Galium plant response rating: Postemergence, 125 g ai/ha, 0 to 100 scale (0 no effect, 100 complete control)
How it was run: as §2

[11] = tested on: Italian ryegrass (Lolium multiflorum); assay: Test A postemergence, visual plant response rating; conditions: for Ryegrass, Italian plant response rating (0 to 100 scale): 500 g ai/ha, postemergence, 0 is no effect, 100 is complete control; for Ryegrass, Italian plant response rating: Postemergence, 125 g ai/ha, 0 to 100 scale (0 no effect, 100 complete control)
How it was run: as §2

[12] = tested on: blackgrass (Alopecurus myosuroides); assay: Test A postemergence, visual plant response rating; conditions: for Blackgrass plant response rating (0 to 100 scale): 500 g ai/ha, postemergence, 0 is no effect, 100 is complete control; for Blackgrass plant response rating: Postemergence, 125 g ai/ha, 0 to 100 scale (0 no effect, 100 complete control)
How it was run: as §2

[13] = tested on: kochia (Kochia scoparia); assay: Test A postemergence, visual plant response rating; conditions: for Kochia plant response rating (0 to 100 scale): 500 g ai/ha, postemergence, 0 is no effect, 100 is complete control; for Kochia plant response rating: Postemergence, 125 g ai/ha, 0 to 100 scale (0 no effect, 100 complete control)
How it was run: as §2

[14] = tested on: wheat (Triticum aestivum); assay: Test A postemergence, visual plant response rating; conditions: for Wheat plant response rating (0 to 100 scale): 500 g ai/ha, postemergence, 0 is no effect, 100 is complete control; for Wheat plant response rating: Postemergence, 125 g ai/ha, 0 to 100 scale (0 no effect, 100 complete control)
How it was run: as §2

[15] = tested on: foxtail, green (green foxtail, Setaria viridis); assay: Test A preemergence, visual plant response rating; conditions: approx. 10 days
How it was run: as §2

[16] = tested on: pigweed (Amaranthus retroflexus); assay: Test A preemergence, visual plant response rating; conditions: approx. 10 days
How it was run: as §2

[17] = tested on: ragweed (common ragweed, Ambrosia elatior); assay: Test A preemergence, visual plant response rating; conditions: approx. 10 days
How it was run: as §2

[18] = tested on: barnyardgrass (Echinochloa crus-galli); assay: Test A preemergence, visual plant response rating; conditions: approx. 10 days
How it was run: as §2

[19] = tested on: Italian ryegrass (Lolium multiflorum); assay: Test A preemergence, visual plant response rating; conditions: approx. 10 days
How it was run: as §2

[20] = tested on: kochia (Kochia scoparia); assay: Test A preemergence, visual plant response rating; conditions: approx. 10 days
How it was run: as §2

CCO/N=C(\c1cccc(C)c1C)c1c(O)c(C)nn(C)c1=O [Compound 25]
Plant response rating, Ducksalad (0 to 100 scale, 0 is no effect, 100 is complete control) [1]: 0
Plant response rating, Rice (0 to 100 scale, 0 is no effect, 100 is complete control) [2]: 0
Plant response rating, Barnyardgrass (0 to 100 scale, 0 is no effect, 100 is complete control) [3]: 0
Plant response rating, Sedge, Umbrella (0 to 100 scale, 0 is no effect, 100 is complete control) [4]: 0
Foxtail, Green plant response rating (0 to 100 scale) [5]: 10
Foxtail, Green plant response rating [5]: 0
Pigweed plant response rating (0 to 100 scale) [6]: 50
Pigweed plant response rating [6]: 40
Corn plant response rating (0 to 100 scale) [7]: 0
Corn plant response rating [7]: 0
Ragweed plant response rating (0 to 100 scale) [8]: 40
Ragweed plant response rating [8]: 20
Barnyardgrass plant response rating (0 to 100 scale) [9]: 30
Barnyardgrass plant response rating [9]: 0
Galium plant response rating (0 to 100 scale) [10]: 20
Galium plant response rating [10]: 20
Ryegrass, Italian plant response rating (0 to 100 scale) [11]: 40
Ryegrass, Italian plant response rating [11]: 10
Blackgrass plant response rating (0 to 100 scale) [12]: 40
Blackgrass plant response rating [12]: 0
Kochia plant response rating (0 to 100 scale) [13]: 10
Kochia plant response rating [13]: 0
Wheat plant response rating (0 to 100 scale) [14]: 0
Wheat plant response rating [14]: 0
Foxtail, Green plant response rating (0 to 100 scale) ([15]; 125 g ai/ha Preemergence): 0
Foxtail, Green plant response rating (0 to 100 scale) ([15]; 500 g ai/ha Preemergence): 60
Pigweed plant response rating (0 to 100 scale) ([16]; 125 g ai/ha Preemergence): 90
Pigweed plant response rating (0 to 100 scale) ([16]; 500 g ai/ha Preemergence): 40
Ragweed plant response rating (0 to 100 scale) ([17]; 125 g ai/ha Preemergence): 30
Ragweed plant response rating (0 to 100 scale) ([17]; 500 g ai/ha Preemergence): 90
Barnyardgrass plant response rating (0 to 100 scale) ([18]; 125 g ai/ha Preemergence): 0
Barnyardgrass plant response rating (0 to 100 scale) ([18]; 500 g ai/ha Preemergence): 0
Ryegrass, Italian plant response rating (0 to 100 scale) ([19]; 125 g ai/ha Preemergence): 10
Ryegrass, Italian plant response rating (0 to 100 scale) ([19]; 500 g ai/ha Preemergence): 30
Kochia plant response rating (0 to 100 scale) ([20]; 125 g ai/ha Preemergence): 0
Kochia plant response rating (0 to 100 scale) ([20]; 500 g ai/ha Preemergence): 0

CO/N=C(\c1c(O)c(C)nn(C)c1=O)c1cccc2ccccc12 [Compound 26]
Plant response rating, Ducksalad (0 to 100 scale, 0 is no effect, 100 is complete control) [1]: 0
Plant response rating, Rice (0 to 100 scale, 0 is no effect, 100 is complete control) [2]: 0
Plant response rating, Barnyardgrass (0 to 100 scale, 0 is no effect, 100 is complete control) [3]: 0
Plant response rating, Sedge, Umbrella (0 to 100 scale, 0 is no effect, 100 is complete control) [4]: 0
Foxtail, Green plant response rating (0 to 100 scale) [5]: 80
Foxtail, Green plant response rating [5]: 60
Pigweed plant response rating (0 to 100 scale) [6]: 90
Pigweed plant response rating [6]: 60
Corn plant response rating (0 to 100 scale) [7]: 30
Corn plant response rating [7]: 0
Ragweed plant response rating (0 to 100 scale) [8]: 100
Ragweed plant response rating [8]: 90
Barnyardgrass plant response rating (0 to 100 scale) [9]: 60
Barnyardgrass plant response rating [9]: 50
Galium plant response rating (0 to 100 scale) [10]: 100
Galium plant response rating [10]: 90
Ryegrass, Italian plant response rating (0 to 100 scale) [11]: 70
Ryegrass, Italian plant response rating [11]: 70
Blackgrass plant response rating (0 to 100 scale) [12]: 90
Blackgrass plant response rating [12]: 80
Kochia plant response rating (0 to 100 scale) [13]: 90
Kochia plant response rating [13]: 80
Wheat plant response rating (0 to 100 scale) [14]: 10
Wheat plant response rating [14]: 0
Foxtail, Green plant response rating (0 to 100 scale) ([15]; 125 g ai/ha Preemergence): 70
Foxtail, Green plant response rating (0 to 100 scale) ([15]; 500 g ai/ha Preemergence): 100
Pigweed plant response rating (0 to 100 scale) ([16]; 125 g ai/ha Preemergence): 100
Pigweed plant response rating (0 to 100 scale) ([16]; 500 g ai/ha Preemergence): 100
Ragweed plant response rating (0 to 100 scale) ([17]; 125 g ai/ha Preemergence): 90
Ragweed plant response rating (0 to 100 scale) ([17]; 500 g ai/ha Preemergence): 100
Barnyardgrass plant response rating (0 to 100 scale) ([18]; 125 g ai/ha Preemergence): 40
Barnyardgrass plant response rating (0 to 100 scale) ([18]; 500 g ai/ha Preemergence): 80
Ryegrass, Italian plant response rating (0 to 100 scale) ([19]; 125 g ai/ha Preemergence): 70
Ryegrass, Italian plant response rating (0 to 100 scale) ([19]; 500 g ai/ha Preemergence): 100
Kochia plant response rating (0 to 100 scale) ([20]; 125 g ai/ha Preemergence): 50
Kochia plant response rating (0 to 100 scale) ([20]; 500 g ai/ha Preemergence): 80
